Source: paper PMC12307812 (Nature Communications, 2025)

How the values were obtained:
[1] = system: SARS-CoV-2 Delta variant AY.1; assay: microbe, parasite or virus in culture; assay type: cell-based; conditions: for mean log10(PFU/ml): AY.1; for IC50: Severe acute respiratory syndrome coronavirus 2, Calu-3, 48 h, read-out: IC50, live SARS-CoV-2 infection AY.1 (Delta)
[2] = system: SARS-CoV-2 Omicron variant KP.3.1.1; assay: microbe, parasite or virus in culture; assay type: cell-based; conditions: for mean log10(PFU/ml): KP.3.1.1; for IC50: Severe acute respiratory syndrome coronavirus 2, Calu-3, 48 h, read-out: IC50, live SARS-CoV-2 infection KP.3.1.1

CN(C)C(=O)COC(=O)Cc1ccc(OC(=O)c2ccc(NC(=N)N)cc2)cc1 [camostat]
mean log10(PFU/ml) ([1]; concentration 5 nM): 7.732 log10(PFU/ml) | mean log10(PFU/ml) ([1]; concentration 50 nM): 7.059 log10(PFU/ml) | mean log10(PFU/ml) ([1]; concentration 500 nM): 6.615 log10(PFU/ml) | mean log10(PFU/ml) ([1]; concentration 5000 nM): 4.492 log10(PFU/ml) | mean log10(PFU/ml) ([1]; concentration 50000 nM): 3.6181 log10(PFU/ml) | IC50 [1]: 22.1 nM | mean log10(PFU/ml) ([2]; concentration 5 nM): 7.955 log10(PFU/ml) | mean log10(PFU/ml) ([2]; concentration 50 nM): 6.207 log10(PFU/ml) | mean log10(PFU/ml) ([2]; concentration 500 nM): 5.0218 log10(PFU/ml) | mean log10(PFU/ml) ([2]; concentration 5000 nM): 1.958 log10(PFU/ml) | mean log10(PFU/ml) ([2]; concentration 50000 nM): 1.699 log10(PFU/ml) | IC50 [2]: 38.3 nM

CC(C)(C)NC(=O)N1CCN(C(=O)N2C(=O)C(CCCNC(=N)N)C2C(=O)O)CC1 (stereo not drawn) [BMS-262084]
mean log10(PFU/ml) ([1]; concentration 5 nM): 7.781 log10(PFU/ml) | mean log10(PFU/ml) ([1]; concentration 50 nM): 5.891 log10(PFU/ml) | mean log10(PFU/ml) ([1]; concentration 500 nM): 3.176 log10(PFU/ml) | mean log10(PFU/ml) ([1]; concentration 5000 nM): 2.572 log10(PFU/ml) | mean log10(PFU/ml) ([1]; concentration 50000 nM): 2.538 log10(PFU/ml) | IC50 [1]: 8.66 nM | mean log10(PFU/ml) ([2]; concentration 5 nM): 7.893 log10(PFU/ml) | mean log10(PFU/ml) ([2]; concentration 50 nM): 4.129 log10(PFU/ml) | mean log10(PFU/ml) ([2]; concentration 500 nM): 1.9 log10(PFU/ml) | mean log10(PFU/ml) ([2]; concentration 5000 nM): 1.699 log10(PFU/ml) | mean log10(PFU/ml) ([2]; concentration 50000 nM): 1.498 log10(PFU/ml) | IC50 [2]: 8.03 nM
